Assay results from patent US11464749B2, “Bismuth-thiol compositions and methods of use” (Microbion Corporation, priority 2018, dated 2022).
Values after ≈ are worked out from the molar mass of the structure shown. Like-named read-outs stand apart in the source and are kept apart here. Values belong to the compound of their own block, whether it stands above or below them.

Assays:
[1] = system: S. agalactiae; experiment: Broth microdilution MIC (Example 11); details: Streptococcus agalactiae
[2] = system: vancomycin-intermediate Staphylococcus aureus (VISA); experiment: Broth microdilution MIC (Example 12); details: Staphylococcus aureus, NRS13 / VISA, read-out: MIC values
[3] = system: S. pyogenes; experiment: Broth microdilution MIC (Example 11); details: Streptococcus pyogenes
[4] = system: S. pneumoniae; experiment: Broth microdilution MIC (Example 11); details: Streptococcus pneumoniae
[5] = system: Staphylococcus aureus (MRSA); experiment: Broth microdilution MIC (Example 11)
[6] = system: Neisseria gonorrhoeae; experiment: Agar dilution MIC (Example 11); format: cell-based; details: read-out: MIC
[7] = system: Klebsiella pneumoniae; experiment: Broth microdilution MIC (Example 12)
[8] = system: Pseudomonas aeruginosa; experiment: Broth microdilution MIC (Example 12)
[9] = system: Escherichia coli; experiment: Broth microdilution MIC (Example 12)
[10] = system: Acinetobacter baumannii; experiment: Broth microdilution MIC (Example 12)

Compound: CN[C@H](CC(C)C)C(=O)N[C@H]1C(=O)N[C@@H](CC(N)=O)C(=O)N[C@H]2C(=O)N[C@H]3C(=O)N[C@H](C(=O)N[C@H](C(=O)O)c4cc(O)cc(O)c4-c4cc3ccc4O)[C@H](O)c3ccc(c(Cl)c3)Oc3cc2cc(c3O[C@@H]2O[C@H](CO)[C@@H](O)[C@H](O)[C@H]2O[C@H]2C[C@](C)(N)[C@H](O)[C@H](C)O2)Oc2ccc(cc2Cl)[C@H]1O [vancomycin]
MIC ([1]; S. agalactiae MMX 3741, ERY^R CC^R): 0.5 µg/mL (≈ 0.345 µM)
MIC ([1]; S. agalactiae MMX 3743, ERY^R CC^R): 0.5 µg/mL (≈ 0.345 µM)
MIC ([1]; S. agalactiae MMX 4077, ERY^R CC^R): 0.5 µg/mL (≈ 0.345 µM)
MIC ([1]; S. agalactiae MMX 4079, ERY^R CC^R Pen^R MEM^R): 2 µg/mL (≈ 1.38 µM)
MIC ([1]; S. agalactiae MMX 4086, ERY^R CC^R): 1 µg/mL (≈ 0.69 µM)
MIC [2]: 2 µg/mL (≈ 1.38 µM)
MIC [3]: 0.5 µg/mL (≈ 0.345 µM)
MIC ([4]; ATCC49619, S. pneumoniae MMX 6837 (ATCC 49619), QC): 0.25 µg/mL (≈ 0.173 µM)
MIC ([4]; S. pneumoniae MMX 880, Lev^R SXT^R CC^R Ery^R Pen^R): 0.5 µg/mL (≈ 0.345 µM)
MIC ([4]; S. pneumoniae MMX 937, Mem^R SXT^R CC^R Ery^R Pen^R): 0.5 µg/mL (≈ 0.345 µM)
MIC ([4]; S. pneumoniae MMX 3959, CC^R Ery^R): 0.5 µg/mL (≈ 0.345 µM)
MIC ([4]; S. pneumoniae MMX 5440, Mem^R SXT^R CC^R Ery^R Pen^R): 0.25 µg/mL (≈ 0.173 µM)
MIC ([4]; S. pneumoniae MMX 5445, Mem^R SXT^R CC^R Ery^R Pen^R): 0.25 µg/mL (≈ 0.173 µM)
MIC ([4]; S. pneumoniae MMX 8133, Mem^R SXT^R CC^R Ery^R Pen^R): 0.25 µg/mL (≈ 0.173 µM)
MIC ([5]; ATCC29213|MRSA|MSSA, S. aureus MMX 101 (ATCC 29213), QC, MSSA): 1 µg/mL (≈ 0.69 µM)
MIC ([5]; MRSA, S. aureus MMX 5373, MRSA Lev^R Cip^R CC^R Ery^R Ox^R): 2 µg/mL (≈ 1.38 µM)
MIC ([5]; MRSA, S. aureus MMX 6311, MRSA Lev^R Cip^R CC^R Ery^R Ox^R): 0.25 µg/mL (≈ 0.173 µM)
MIC ([5]; MRSA, S. aureus MMX 9203, MRSA Lev^R Cip^R Ery^R Ox^R): 2 µg/mL (≈ 1.38 µM)
MIC ([5]; MRSA, S. aureus MMX 9204, MRSA Lev^R Cip^R Ery^R Ox^R): 1 µg/mL (≈ 0.69 µM)
MIC ([5]; MRSA, S. aureus MMX 9205, MRSA Lev^R Cip^R CC^R Ery^R Ox^R): 2 µg/mL (≈ 1.38 µM)

Compound: CO/N=C(\C(=O)N[C@@H]1C(=O)N2C(C(=O)O)=C(CSc3nc(=O)c(=O)[nH]n3C)CS[C@H]12)c1csc(N)n1 [Ceftriaxone]
MIC ([6]; ATCC49226, N. gonorrhoeae MMX 683 (ATCC 49226), QC): 0.015 µg/mL (≈ 0.027 µM)
MIC ([6]; N. gonorrhoeae MMX 6757, CTX NS): 1 µg/mL (≈ 1.8 µM)
MIC ([6]; N. gonorrhoeae MMX 6791, CIP^R): 0.06 µg/mL (≈ 0.108 µM)
MIC ([6]; N. gonorrhoeae MMX 6792, CIP^R): 0.06 µg/mL (≈ 0.108 µM)
MIC ([6]; N. gonorrhoeae MMX 6793, CIP^R): 0.03 µg/mL (≈ 0.0541 µM)

MIC ([7]; K. pneumoniae ATCC BAA-1705, ESBL/KPC): >64 µg/mL
MIC ([7]; K. pneumoniae ATCC BAA-1705, QC organism (Table 102)): >64 µg/mL
MIC ([7]; K. pneumoniae CDC 112, KPC): >64 µg/mL
MIC ([7]; K. pneumoniae CDC 113, ESBL/KPC): >64 µg/mL
MIC ([7]; K. pneumoniae CDC 115, ESBL/KPC): >64 µg/mL
MIC ([7]; K. pneumoniae CDC 120, ESBL/KPC): >64 µg/mL
MIC ([7]; K. pneumoniae CDC 126, ESBL/KPC): 4 µg/mL (≈ 7.32 µM)
MIC ([7]; K. pneumoniae CDC 129, ESBL/KPC): >64 µg/mL
MIC ([7]; K. pneumoniae CDC 135, ESBL/VIM): >64 µg/mL
MIC ([7]; K. pneumoniae CDC 138, ESBL/NDM): >64 µg/mL
MIC ([7]; K. pneumoniae CDC 158, ESBL/NDM/OXA): >64 µg/mL
MIC ([7]; K. pneumoniae MMX 9029, ESBL): 4 µg/mL (≈ 7.32 µM)
MIC ([8]; P. aeruginosa CDC 230, VIM/OXA): 64 µg/mL (≈ 117 µM)
MIC ([8]; P. aeruginosa CDC 231, KPC/OXA): >64 µg/mL
MIC ([8]; P. aeruginosa CDC 241, IMP/OXA): >64 µg/mL
MIC ([8]; P. aeruginosa CDC 246, NDM/OXA): >64 µg/mL
MIC ([8]; P. aeruginosa CDC 250, NDM/OXA): >64 µg/mL
MIC ([8]; P. aeruginosa CDC 356, KPC): 64 µg/mL (≈ 117 µM)
MIC ([8]; P. aeruginosa CDC 439, IMP): >64 µg/mL
MIC ([8]; P. aeruginosa CDC 444, VIM): 32 µg/mL (≈ 58.5 µM)
MIC ([8]; P. aeruginosa CDC 457, VIM): >64 µg/mL
MIC ([8]; P. aeruginosa CDC 516, KPC/AmpC): 64 µg/mL (≈ 117 µM)
MIC ([8]; P. aeruginosa CDC 518, KPC/AmpC): 32 µg/mL (≈ 58.5 µM)
MIC ([9]; E. coli ATCC 35218, ESBL): 0.12 µg/mL (≈ 0.22 µM)
MIC ([9]; E. coli ATCC 35218, QC organism (Table 102)): 0.12 µg/mL (≈ 0.22 µM)
MIC ([9]; E. coli ATCC BAA-2471, NDM): >64 µg/mL
MIC ([9]; E. coli CDC 114, ESBL/KPC): >64 µg/mL
MIC ([9]; E. coli CDC 118, ESBL/NDM): >64 µg/mL
MIC ([9]; E. coli CDC 435, NDM): >64 µg/mL
MIC ([9]; E. coli CDC 451, KPC): 64 µg/mL (≈ 117 µM)
MIC ([9]; E. coli CDC 503, ESBL/NDM): >64 µg/mL
MIC ([9]; E. coli MMX 5745, KPC): 32 µg/mL (≈ 58.5 µM)
MIC ([9]; E. coli MMX 5755, ESBL): >64 µg/mL
MIC ([9]; E. coli MMX 5756, ESBL): >64 µg/mL
MIC ([9]; E. coli MMX 5758, ESBL): 16 µg/mL (≈ 29.3 µM)
MIC ([10]; A. baumannii CDC 273, ESBL/OXA): 64 µg/mL (≈ 117 µM)
MIC ([10]; A. baumannii CDC 274, ESBL/OXA): >64 µg/mL
MIC ([10]; A. baumannii CDC 275, ESBL/OXA): >64 µg/mL
MIC ([10]; A. baumannii CDC 277, ESBL/OXA): >64 µg/mL
MIC ([10]; A. baumannii CDC 284, ESBL/OXA): 64 µg/mL (≈ 117 µM)
MIC ([10]; A. baumannii CDC 307, OXA): 64 µg/mL (≈ 117 µM)
MIC ([10]; A. baumannii CDC 308, ESBL/OXA): 64 µg/mL (≈ 117 µM)
MIC ([10]; A. baumannii CDC 311, OXA): >64 µg/mL
MIC ([10]; A. baumannii CDC 312, OXA): >64 µg/mL
MIC ([10]; A. baumannii CDC 313, ESBL/OXA): >64 µg/mL
MIC ([10]; A. baumannii NCTC 13304, OXA): >64 µg/mL
Compound: CC(C)(O/N=C(\C(=O)N[C@@H]1C(=O)N2C(C(=O)[O-])=C(C[n+]3ccccc3)CS[C@H]12)c1csc(N)n1)C(=O)O [CAZ]
